The values below come from US20040171089A1, “High-throughput screening assay for identifying substances capable of modulating cell survival and/or proliferation” (priority 2001, published 2004).

For data set [1], the system named is MDA MB 468 cells. Put plainly: Fura-2 calcium imaging, MDA MB 468 cells. The format is cell-based, human. The settings on record: for % increase of cytosolic calcium (peak 340/380 nm fura-2 ratio): MDA 468 cells; for effect on cytosolic calcium levels (in words): MDA MB 468 cells, FIG. 2a: IPAG 1-10 μM, rimcazole 10-30 μM, (+)-SKF 10,047 10 μM, (+)-pentazocine 10-30 μM, ibogaine 10-50 μM. The method, then:
Human mammary carcinoma (MDA MB 468) cells were obtained from ATCC, Manassas, Va., USA; catalogue number HTB-132; cells were grown in accordance with the manufacturer's instructions.
(§1) For calcium imaging experiments cells were plated onto poly-L-lysine coated coverslips (13 mm). Single cell imaging was performed utilizing a MiraCal Imaging facility (Life Science Resources, Cambridge, U.K.) with a Nikon Diaphot-TMD inverted epifluorescence microscope equipped with a ×40 oil immersion objective and Sutter filter wheel. The imager was equipped with a Lambert intensifier 1187 (Life Sciences Resources) providing a ×30 enhancement of the fluorescent signal, thus limiting phototoxicity.
(§2) Fura-2 acetoxymethyl ester (fura-2 AM) incubations with the cells were performed at 37° C. in a medium containing (in mM): 120 NaCl, 3.5 KCl, 0.4 KH2PO4, 5 NaHCO3, 1.2 Na2SO4, 15 glucose, 1.2 MgCl2, 1 CaCl2, and 20 TES [N-tris(hydroxymethyl) methyl-2-aminoethane sulphonic acid] pH adjusted to 7.4 with NaOH. Typically cells were incubated in 3 μM fura-2 AM for 25 min., which permitted sufficient accumulation of free fura-2 in the cell cytoplasm. Cells were then illuminated alternately at 340 and 380 nm with the emitted 505 nm light being detected by a photomultiplier. Free fura emits maximally when excited at 380 nm, whilst the calcium bound fura has a maximal emission when excited at 340 nm. Thus the ratio of emission when alternately excited at 340/380 nm is a measure of the calcium concentration in equilibrium with the chelator. Changes of intracellular calcium were quantified as the percentage increase of the fluorescent ratio (determined at ˜505 nm) obtained by exciting the test cells alternatively at 340 nm (optimal for calcium bound dye) and 380 nm.

Data set [2] has as its system adult dermal fibroblasts. Briefly: MTS cell viability/proliferation assay, adult dermal fibroblasts. The format is cell-based, human. The settings on record: 1-10 μM. The method, then:
(§3) This was carried out using an MTS assay (reagents from Promega Corporation, Madison Wis., USA) which is a modification of the MTT assay (as described in Jacobson et al, 1994 EMBO J Vol 13 pp1899-1910). The assay depends on conversion of the MTS tetrazolium compound to a coloured formazan product in metabolically active cells; it is therefore an assay of viable cell number. A decline in values implies cell killing as long as cell disappearance by apoptosis in untreated cell populations is absent or negligible (as with most healthy primary cell populations).
(§4) Cells were seeded in the range 1.5×10^5-1.8×10^5 cells per ml of culture medium in 96 well microtitre plates and allowed to attach in a humidifed atmosphere of 5% CO2 in air at 37 deg C. Drugs were added 18-24 hours later and cell viability/proliferation measured at time intervals up to 48-72 hours post-drug addition when the experiment was terminated. Mean (±SE) values at each time point were obtained from wells in triplicate.
(§5) Cell viability was measured as follows: 20 μl of MTS solution (Promega) was added to wells and incubated at 37 deg C. for 3 hours during which time a coloured formazan product is generated in viable cells. […] Viable cell number was then measured by reading absorbance at 490 nm in a Dynex microtitre plate reader. […]

The test system of data set [3] is mammary epithelial cells. Briefly: MTS cell viability/proliferation assay, mammary epithelial cells. It is filed as cell-based, human. The settings on record: 1-10 μM. How it is done: Human mammary epithelial cells (catalogue number CC-2551; stain positive for cytokeratins 14, 18 and 19)
as §3
Cells were seeded in the range 1.5×10^5-1.8×10^5 cells per ml of culture medium in 96 well microtitre plates and allowed to attach in a humidifed atmosphere of 5% CO2 in air at 37 deg C. Drugs were added 18-24 hours later and cell viability/proliferation measured at time intervals up to 48-72 hours post-drug addition when the experiment was terminated. […]
as §5

Data set [4] has as its system MDA MB 468 cells. Briefly: MTS cell viability/proliferation assay, MDA MB 468 cells. The format is cell-based, human. As to conditions: MDA 468 cells; 1-10 μM. The method, then:
as §3, §4, §5

For data set [5], the system named is human prostate epithelial cells. Put plainly: MTS cell viability/proliferation assay, prostate epithelial cells. As to conditions: 1-10 μM. The format is cell-based. The method, then:
as §3, §4, §5

For data set [6], the system named is phospholipase C. Put plainly: Quantitative HPLC assay of inositol phosphates (IP3 levels) in MDA MB 468 cells. It is filed as cell-based, human. As to conditions: [3H] inositol labelled cells. The text has this:
The PH domain of PLC delta 1 has a higher affinity for the phosphoinositide IP3 compared to PIP2. IP3 is produced from PIP2 in response to activation of PLC. Since PIP2 is membrane-bound whereas IP3 is cytosolic, the activation of PLC can be visualised in living cells by the relocalisation of GFP-PH PLC delta 1 from membrane to cytosol. A proviso to this interpretation is that, in conditions where PIP2 levels decline relative to IP3, the net effect would be relocalisation of GFP-PH PLC delta 1 from membrane to cytosol. Thus, to exclude this possibility, quantitative phospholipid assays were performed. (In this analysis, cells were labelled with [^3H] inositol in inositol-free DMEM (In Vitrogen—Gibco) with dialysed FBS for 48 hours before exposure to sigma ligands. Cells were then lysed and subjected to quantitative HPLC assay). These assays confirmed that IP3 levels had risen in cells exposed to sigma antagonists (IP3 levels had risen to 240% and 166% of the level prior to provision of the test substance in response to IPAG and rimcazole respectively) but had not risen in cells exposed to sigma-1 or sigma-2 agonists. This confirmed activation of PLC by sigma antagonists.

The test system of data set [7] is phospholipase C. Put plainly: GFP-PH PLCdelta 1 relocalisation (PLC activation) in MDA MB 468 cells. It is filed as cell-based, human. The settings on record: for relocalisation of GFP-PH PLC delta 1 from membrane to cytosol: 100 μM, approximately 10 minutes, DMEM with 10% fetal bovine serum.
Excerpt: The inventors introduced a recombinant plasmid vector encoding a hybrid protein comprised of the pleckstrin homology (PH) domain of phospholipase C (PLC) delta 1 fused green fluorescent protein (GFP) (GFP-PH PLCdelta 1) into MDA MB 468 mammary carcinoma cells. A standard transfection method (Fugene-6—Roche) was used. […] Cells were maintained in DMEM with 10% fetal bovine serum at 37 deg C. in 5% CO2 before and during exposure to sigma ligands which were present at a range of concentrations. Effects on the GFP-PH PLCdelta 1 protein were studied in two ways: by time lapse microscopy (using a Leica inverted fluorescence microscope and a Hammamatsu Orca charge-coupled device camera, linked to an Improvision Open Lab image processing workstation). This enabled the time course of effects to be determined. […] Control cell populations received drug vehicle alone and were analysed at the same time points.
GFP-PH PLC delta 1—expressing MDA MB 468 cells were exposed to sigma antagonists in 1 mM and 0 mM (nominally calcium-free) buffer (as used for the calcium imaging experiments, described above) and monitored by time lapse imaging as above.
In data set [8] the test system is microvascular endothelial cells. Briefly: MTS cell viability/proliferation assay, microvascular endothelial cells. The format is cell-based, human. As to conditions: 1-10 μM. How it is done:
as §3, §4, §5

Data set [9] concerns sigma-1 compared to sigma-2 sites. The settings on record: Abou-Gharbia et al 1993; cited from earlier work.
The test system of data set [10] is human primary microvascular endothelial cells. Put plainly: Fura-2 calcium imaging, microvascular endothelial cells. As to conditions: microvascular endothelial cells; FIG. 2b: IPAG 10 μM, rimcazole 10-30 μM, (+)-pentazocine 10-30 μM. The format is cell-based. The method, then:
Human adult dermal microvascular endothelial cells (catalogue number CC-2543; cells had been characterised by tests for cell type markers: positive for acetylated LDL uptake, positive for factor VIII related antigen, negative for alpha smooth muscle actin)
as §1, §2

Data set [11] deals with microvascular endothelial cells. The settings on record: equimolar, 10 micromolar, GB0007842.8, WO 0174359; cited from earlier work.

“Also recorded” adds a separate entry of the source.

Consider `C[C@@H]1CN(CCCn2c3ccccc3c3ccccc32)C[C@H](C)N1` [rimcazole], for which the “% increase of cytosolic calcium (peak 340/380 nm fura-2 ratio)” value in data set [1] (30 μM) was determined as 92±8%. Moreover, in data set [1], the “effect on cytosolic calcium levels (in words)” value is recorded as “increase cytosolic calcium levels”. Also, the Cytotoxicity result in data set [2] is on record as “not cytotoxic”; in data set [3] it was “not cytotoxic”; in [4], “cytotoxic”; in [5] it was “not cytotoxic”; in [8] it was “cytotoxic”. The “IP3 levels, % of the level prior to provision of the test substance” value in data set [6] is 166%. Also, in data set [7], the “relocalisation of GFP-PH PLC delta 1 from membrane to cytosol” value is “pronounced relocalisation”. The “localisation of GFP-PH PLC delta 1” value in data set [7] (nominally calcium-free buffer (0 mM calcium)) is recorded as “remained membrane-localised”. In addition, in data set [9], the “selectivity for sigma-1 compared to sigma-2 sites” value is given as “approximately 5 fold”.
Regarding `CC(C)=CCN1CCC2(C)c3cc(O)ccc3CC1C2C` (single isomer, unassigned; (+)) [(+)-pentazocine], the “increase in cytosolic calcium” value in data set [10] is recorded as “little or no effect”. Moreover, the entries for the “% increase of cytosolic calcium (peak 340/380 nm fura-2 ratio)” value in [1] (10 μM) and in data set [1] (30 μM) were 5±7% and −7±6%, respectively. The “effect on cytosolic calcium levels (in words)” value in data set [1] is recorded as “little or no rise; also recorded: little or no effect”. For the same compound, the “prevention of rimcazole- and IPAG-induced death and cytostasis” value in data set [11] was “completely prevented”.
For the compound ibogaine, the “effect on cytosolic calcium levels (in words)” value in data set [1] is “little or no rise; also recorded: fails to induce a significant rise”. Also, the “relocalisation of GFP-PH PLC delta 1 from membrane to cytosol” value in data set [7] is reported as “failed to produce this effect”.
For the compound (+)-SKF 10,047, the “effect on cytosolic calcium levels (in words)” value in data set [1] is recorded as “little or no effect”; in data set [1] (listed as (+)-SKF-10,047), “little or no rise”.
